Test results from US9243237B2, “Method for mass production of factor VII/VIIA” (HANMI SCIENCE CO., LTD, priority 2010, dated 2016).

Assays:
Format in all cases: cell-based, Chinese hamster
[1] = system: CHO/dhfr- cells transformed with pX0GC-FVII; test: Selection of human factor VII-expressing cells in MTX selection medium, expression level by enzyme immunoassay; details: MTX concentration of 10 nM or higher
Protocol: The transformed cells of Example <2-1> were seeded at a density of 2×10^4 cells/well to 24-well plates. When the cells were grown to almost full confluence, serum-free CHO-A-SFM (Gibco, Cat. No. 05-5072EF) supplemented with 0.3 mM sodium butyrate (Sigma, Cat. No. B5887) was aliquoted in an amount of 200 μL/well, followed by incubation at 33° C. for 48 hours in a 5% CO2 incubator. The cell culture was transferred to 1.5 mL tubes and centrifuged. Expression levels of human factor VII in the supernatants were measured by taking measurements using an enzyme immunoassay kit (American Diagnostica, Cat. no. 877) according to the manufacturer's instruction. In detail, the cell culture and the standard substance enclosed in the kit were diluted to certain concentrations in physiological saline containing 0.05% Tween-20, and the dilutions were added in an amount of 100 μL to each well of the kit and allowed to react at room temperature for one hour on a plate shaker. […] Five minutes later, 50 μL of a stopping solution was added to each well, followed by measuring absorbance at 450 nm. A standard curve and a function were obtained from the concentrations of the standard solution and the absorbance values obtained. […]

[2] = system: hFVII-expressing recombinant CHO cell line (HMF708); test: Growth of the cell line in mass-scale production medium (4 L incubation tanks, continuous feed) containing sodium butyrate, hFVII level by enzyme immunoassay; details: for FVII Level (% compared to control %): 4 L, 30.0°C, 11-18 days
Protocol: (§1) The transformed cells of Example <2-1> were seeded at a density of 2×10^4 cells/well to 24-well plates. When the cells were grown to almost full confluence, serum-free CHO-A-SFM (Gibco, Cat. No. 05-5072EF) supplemented with 0.3 mM sodium butyrate (Sigma, Cat. No. B5887) was aliquoted in an amount of 200 μL/well, followed by incubation at 33° C. for 48 hours in a 5% CO2 incubator. The cell culture was transferred to 1.5 mL tubes and centrifuged. Expression levels of human factor VII in the supernatants were measured by taking measurements using an enzyme immunoassay kit (American Diagnostica, Cat. no. 877) according to the manufacturer's instruction. In detail, the cell culture and the standard substance enclosed in the kit were diluted to certain concentrations in physiological saline containing 0.05% Tween-20, and the dilutions were added in an amount of 100 μL to each well of the kit and allowed to react at room temperature for one hour on a plate shaker. After being washed four times with the washing solution enclosed in the kit, each of the wells was incubated at room temperature for one hour with 100 μL of an anti-human factor VII antibody on a plate shake. Each well was again washed four times with the washing solution and then incubated at room temperature for 30 min with 100 μL of an HRP (horseradish peroxidase)-conjugated antibody to the anti-human factor VII antibody. Subsequently, the wells were washed four times, and incubated with 100 μL of a substrate per well at room temperature. Five minutes later, 50 μL of a stopping solution was added to each well, followed by measuring absorbance at 450 nm. A standard curve and a function were obtained from the concentrations of the standard solution and the absorbance values obtained.
(§2) One vial (1×10^7 cells/mL) of the hFVII-expressing cell line which had been selected and assimilated to suspension culture in Example <2-3> was taken from a liquid nitrogen tank and thawed as soon as possible in a 37° C. bath. After being washed once with a seed culturing medium (EX-CELL CHO medium (Sigma, Cat. No. 63225C) supplemented with 0.3 g/L glutamine), the cell culture was centrifuged at 90×g for min and then inoculated into 50 mL of a seed culture medium in an Erlenmeyer flask (Corning, USA cat#431144). When grown for 1-2 days to a density of 10×10^5 cell/mL in a CO2 incubator (37° C., 5% CO2), the cells were centrifuged again in the same manner and then sub-cultured in 100 mL of a fresh seed culture medium in a new Erlenmeyer flask. The double-volume passage was continued until a sufficient number of cells were achieved.
The effect of sodium butyrate on the production of hFVII was examined when the cells were cultured on mass scale. For this, first, the recombinant CHO cell line which was being cultured was inoculated at a density of 1.2×10^7 cells/mL into 4 L of a production medium in each of incubation tanks which contained sodium butyrate (Cat. no. B5887, SIGMA, USA) at concentrations of 0.3, 1.0, 1.5 and 2.0 mM, respectively. The cells grown in the presence of 0.3 mM sodium butyrate were used as a control for comparison. To produce hVII, the cells were cultured at 30.0° C. for 11-18 days with the medium continuously fed at 0.5-1.0 VVD. The culturing was stopped when cellular activity was reduced to less than 80%. […]
In addition, after the cell cultures taken during the cultivation was centrifuged, the levels of hFVII in the supernatants were measured using an enzyme immunoassay method as in Example <2-2>.

[3] = system: hFVII-expressing recombinant CHO cell line (HMF708); test: Growth of hFVII-expressing cell line in production medium containing sodium butyrate (50 mL Erlenmeyer flasks), hFVII level by enzyme immunoassay; details: for FVII Level (% compared to control %): 30.0°C, day 4, supernatant
Protocol: as §1
as §2, with “assimilated to a suspension culture” for “assimilated to suspension culture”, “90×g for 5 min and” for “90×g for min and”, “of 10×10^5 cells/mL in a” for “of 10×10^5 cell/mL in a”, “continued until there was a sufficient” for “continued until a sufficient”, “number of cells.” for “number of cells were achieved.”
The effect of sodium butyrate on the production of hFVII was examined. For this, first, the recombinant CHO cell line which was being cultured was inoculated at a density of 5.0×10^6 cells/mL into 50 mL of a production medium in each of three Erlenmeyer flasks which contained sodium butyrate (Cat. no. B5887, SIGMA, USA) at concentrations of 0.3, 1.0 and 1.5 mM, respectively. The cells grown in the presence of 0.3 mM sodium butyrate were used as a control for comparison. The cells were cultured at 30.0° C. for four days to produce hFVII. On day 4, the cell concentration and cellular activity of the cell cultures were examined. There were no changes in cell density and cellular activity among the cell cultures of different butyrate concentrations.
In addition, after centrifugation of the cell cultures on Day 4, the levels of hFVII in the supernatants were measured using an enzyme immunoassay method as in Example <2-2>.

[4] = 0.3 mM sodium butyrate (control)
[5] = 1.5 mM sodium butyrate, control = 0.3 mM
[6] = 1.0 mM sodium butyrate, day 4, control = 0.3 mM
[7] = 1.5 mM sodium butyrate, day 4, control = 0.3 mM
[8] = day 4, among cultures with 0.3, 1.0 and 1.5 mM butyrate

Row | Compound | expression level of human factor VII [1] | FVII Level (% compared to control %) [2, 4] [%] | FVII Level (% compared to control %) ([2]; 1 mM sodium butyrate, control = 0.3 mM) [%] | FVII Level (% compared to control %) [2, 5] [%] | FVII Level (% compared to control %) ([2]; 2.0 mM sodium butyrate, control = 0.3 mM) [%] | amounts of FVII produced ([2]; higher concentrations of sodium butyrate, in spite of reduced periods of time of production) | FVII Level (% compared to control %) [3, 4] [%] | Final Cell Density (% compared to control) ([3]; 0.3 mM sodium butyrate (control), day 4) [%] | FVII Level (% compared to control %) ([3]; 1.0 mM sodium butyrate, control = 0.3 mM) [%] | Cellular Activity (% compared to control) [3, 6] [%] | Final Cell Density (% compared to control) [3, 6] [%] | FVII Level (% compared to control %) [3, 5] [%] | Cellular Activity (% compared to control) [3, 7] [%] | Final Cell Density (% compared to control) [3, 7] [%] | production of hFVII ([3]; 0.3, 1.0 and 1.5 mM sodium butyrate) | activity at 300 µM ([3]; Cricetulus griseus, CHO, 96 h, 0.3 mM sodium butyrate (control), day 4, read-out: Cellular Activity (% compared to control)) [%] | cell density [3, 8] | cellular activity [3, 8]
1 | CN(Cc1cnc2nc(N)nc(N)c2n1)c1ccc(C(=O)N[C@@H](CCC(=O)O)C(=O)O)cc1 [MTX, Methotrexate] | not increased | – | – | – | – | – | – | – | – | – | – | – | – | – | – | – | – | –
2 | CCCC(=O)[O-].[Na+] [Sodium Butyrate, sodium butyrate] | – | 100.0 | 154.5 | 157.7 | 127.6 | higher amounts of FVII were produced | 100.0 | 100.0 | 164.9 | 100.2 | 106.8 | 190.1 | 99.9 | 108.5 | increased in a sodium butyrate dose-dependent manner | 100 | no changes | no changes
